Test results as given in patent publication US20090105562A1, “SYSTEM AND METHODS FOR SCREENING OR ANALYZING TARGETS” (TAIPEI VETERANS GENERAL HOSPITAL, priority 2007, published 2009).

Tests used:
Type in all cases: cell-based, rat
[1] = tested on: LPS-treated NSCs; experiment: Cell survival rate of LPS-treated NSCs
Method: (§1) IM was purchased from Sigma Chem. Co., St Louis, Mo., USA. NSCs were seeded on 24-well plates at a density of 2×10^4 cells/well in medium, followed by methyl thiazol tetrazolium assay (MTT assay) (Sigma-Aldrich Co., St Louis, Mo., USA) for cell viability. NSCs were incubated with 0.25 mg/ml MTT for 4 hours at 37° C. and the reaction was terminated by the addition of 100% isopropanol. The amount of MTT fromazon product was determined using a microplate reader and the absorbance was measured at 560 nm (SpectraMax 250, Molecular Devices, Sunnyvale, Calif., USA). NSCs were exposed to 0, 1, 2, 5, 10, 20, 30, 40, 50, 100, 200, and 300 μM of IM for 1, 3, 5, and 7 days, respectively. The activities of caspases 8 and 3 (Medical and Biological Laboratories Co., Ltd., Nagoya, Japan), and the concentration of IL-6, IL-1 and TNF-α (Pharmingen, San Diego, Calif., USA) were determined by ELISA kits and quantified by reading at 490 nm (MRX; Dynatech Laboratories, Chantilly, Va., USA). Each individual sample was analyzed in triplicate.
Double-stranded, short interfering RNA (siRNA) of BDNF and Bcl-2 were chemically synthesized by Ambion Inc., Austin, Tex., USA). The sense and antisense sequences of BDNF were designed as follows: Sense: […]tt; Antisense: AGCTTAAAAAGAG CTGtt, starting from nucleotide 137 of the Bcl-2 sequence (accession number L14680). The sense and antisense sequences of Bcl-2 were designed as follows: Sense: GCGCUGGAUAUAACUUCUUtt; Antisense: AAGAAGUUAUAUC CAGCGCtt, starting from nucleotide 137 of the Bcl-2 sequence (accession number L14680). In this test, the siRNA control used was siRNA-Cy3 (QIAGEN; sense sequence: UUCUCCGAACGUGU CACGUdTdT-3′-Cy3 and the complement 5′-ACGUGACACGUUCGGAGAAdTdT-3′-Cy3) as an irrelevant control. The transfection of siRNA was performed using Lipofectamine 2000 (Invitrogen, Carlsbad, Calif., USA) according to the manufacturer's instructions. In brief, cells were harvested with 0.25% trypsin, 1 mM ethylenediaminetetraacetic acid (EDTA) in phosphate buffered saline (PBS) without Ca^2+ and Mg^2+, and plated in six-well plates at 10^5 per cm^2. […]

[2] = tested on: NSCs; experiment: Triple-staining immunofluorescent assay of NSC differentiation into serotoninergic neurons
Method: All animals used were treated in accordance with the Animal Care and Use Committee guideline at Taipei Veterans General Hospital. The protocol of the present study was also approved by the committee. Adult Sprague-Dawley (SD) rats (8 weeks old, 250 g) were anesthetized with intraperitoneal phenobarbital (Sigma, USA), and the location of their brains was mapped. Then, the brain was surgically separated from the hippocampus region. In brief, tissues from the hippocampus of adult rats were dissociated and incubated in Hank's balanced salt solution (HBSS) containing collagenase (78 units/ml) and hyaluronidase (38 units/ml) for 10 minutes at 37° C. The tissues were then mechanically dissected and placed in a trypsin solution (1.33 mg/ml) at 37° C. for another 10 minutes. Dissociated cells were then centrifuged at […] for 5 minutes. Then the enzyme solution was removed and replaced with serum-free culture media composed of Dulbecco Modified Eagle Medium (DMEM) and F-12 nutrient mixture (1:1) including insulin (25 μg/mL), transferrin (100 μg/mL), progesterone (20 nM), putrescine (60 μM), sodium selenite (30 nM), human recombinant epidermal growth factor (EGF) 20 ng/mL, and fibroblast growth factor-basic (bFGF) (20 ng/mL) (R&D Systems, Minneapolis, Minn., USA). Viable cells were counted by trypan blue exclusion and plated as 5000 cells/200 μL per well in 96-well plates (Corning Inc, Acton, Mass., USA) with no substrate pretreatment. The IM was purchased from Sigma Chem. Co., St Louis, Mo., USA. The 0.1% dimethyl sulfoxide (DMSO) (Sigma Chem. Co., St Louis, Mo., USA) was used as a vehicle control in all procedures and studies. For differentiation protocol, the neurosphere NSCs were plated on poly-L-ornithine-coated (15 μg/mL) glass coverslips in individual wells of 24-well plates (1.0 mL/well) in DMEM/F-12 medium containing 2% fetal calf serum (FCS) (Gibcol-BRL, Gaitherburg, Md., USA) and withdrawing EGF and bFGF At the time of NSCs seeding, vehicle control or IM treatment was concurrently added.
An avidin-biotin complex method was used for the immunohistochemical staining in the differentiated NSCs. Following washes with the 3% hydrogen peroxide, sodium azide and antigens were retrieved using a microwave. […] Immunoreactive signals were detected with a mixture of biotinylated rabbit anti-mouse IgG and Fluoresave (Calbiochem, La Jolla, Calif., USA) under confocal microscopy (Olympus, FV300). Each individual sample was analyzed in triplicate. […] The percentage of TUNEL-positive cells was measured by the average of 6 different areas as compared to the total cell number in the same section slide (under a×200 power field of a light microscope).

[3] = tested on: LPS-treated NSCs; experiment: LPS-induced apoptotic activity in NSCs, caspase 8 and 3 ELISA
Method: as §1
Double-stranded, short interfering RNA (siRNA) of BDNF and Bcl-2 were chemically synthesized by Ambion Inc., Austin, Tex., USA). The sense and antisense sequences of BDNF were designed as follows: Sense: […]tt; Antisense: AGCTTAAAAAGAG CTGtt, starting from nucleotide 137 of the Bcl-2 sequence (accession number L14680). The sense and antisense sequences of Bcl-2 were designed as follows: Sense: GCGCUGGAUAUAACUUCUUtt; Antisense: AAGAAGUUAUAUC CAGCGCtt, starting from nucleotide 137 of the Bcl-2 sequence (accession number L14680). In this test, the siRNA control used was siRNA-Cy3 (QIAGEN; sense sequence: UUCUCCGAACGUGU CACGUdTdT-3′-Cy3 and the complement 5′-ACGUGACACGUUCGGAGAAdTdT-3′-Cy3) as an irrelevant control. The transfection of siRNA was performed using Lipofectamine 2000 (Invitrogen, Carlsbad, Calif., USA) according to the manufacturer's instructions. In brief, cells were harvested with 0.25% trypsin, 1 mM ethylenediaminetetraacetic acid (EDTA) in phosphate buffered saline (PBS) without Ca^2+ and Mg^2+, and plated in six-well plates at 10^5 per cm^2. Then 3.5 μl siRNA (100 μM solution) was mixed with 125 μl serum-free culture medium for 5 minutes at room temperature. During this incubation period, 5 μl of Lipofectamine 2000 was diluted in 125 μl serum-free culture medium. These two mixtures were combined, mixed gently, and incubated for 20 minutes at room temperature for complex formation. This 250 μl of siRNA-Lipofectamine mixture was then added into the cells in a final volume of 2.5 ml per well. The transfected cells were cultured and fed daily with fresh medium until they were assayed.

[4] = Day 7 culture of IM-treated vs non IM-treated NSCs, p<0.05
[5] = LPS (100 ng/ml) exposure, Day 7 IM-treated vs without IM, p<0.05
[6] = agent added, Day 7 culture of IM-treated NSCs

Structure (SMILES)	cell survival rate in LPS-treated NSCs ([1]; vs only LPS-treated NSCs, LPS 100 ng/ml)	percentage of MAP-2-positive cells [2, 4]	percentage of serotonin (5-HT)-positive cells [2, 4]	apoptotic activity of caspase 3 [3, 5]	apoptotic activity of caspase 8 [3, 5]	cell viability in LPS-treated NSCs with IM ([1]; after added treatment with the agent)	percentage of MAP-2-positive cells in IM-treated NSCs [2, 6]	percentage of serotonin (5-HT)-positive cells in IM-treated NSCs [2, 6]	apoptotic activities (caspase 8, caspase 3 and TUNEL assays) in LPS- and IM-treated NSCs ([3]; agent added to LPS- and IM-treated NSCs, U0126 40 μM)
CN(C)CCCN1c2ccccc2CCc2ccccc21 [IM, imipramine]	significantly increases	significantly increased	significantly increased	significantly decreased	significantly decreased				
N#CC(=C(/N)Sc1ccccc1N)/C(C#N)=C(\N)Sc1ccccc1N [U0126]						dramatically decreased	significantly decrease	significantly decrease	significantly enhanced
